Experimental data reported in patent US20260199316A1, “SOLID DISPERSION, PREPARATION METHOD THEREFOR, AND USE THEREOF” (HANGZHOU GLUBIO PHARMACEUTICAL CO., LTD, priority 2022, published 2026).
Converted amounts (≈) assume the structure as drawn.

What was measured:
[1] = Chirality stability in solvents (other studies); format: physicochemical
[2] = Approximate solubility test in solvents; format: physicochemical; details: organic solvent or mixture, thermodynamic from solid
Method: About 5 mg of the API control of Formula A was weighed into a 1.5 mL glass vial, and then a certain amount of different solvents (as shown in Table 1) were gradually added until the solid dissolved or the total volume reached 1 mL. The compound of formula A has a high approximate solubility in a mixed solvent of DCM and MeOH.
Different solvents have different solubility for the compound of formula A, considering the stability factor, DCM:EtOH (9:1, v/v) and acetone:water (9:1, v/v) may be used as solvent systems for the preparation of solid dispersions of the compound of formula A.

[3] = Solubility of rapid solvent evaporation products in FaSSIF; format: physicochemical
Method: About 10 mg of the API control of the compound of formula A and 40 mg of the polymer carrier were transferred to 1 mL of DCM:EtOH=9:1 (v/v) to prepare a solution with 20% drug loading. The resulting clear solution was rapidly evaporated at 80° C. until there was no liquid to prepare a solid dispersion. The API control of the compound of formula A was also treated separately in the same manner.

[4] = In vivo pharmacokinetic study of solid dispersions; parameters: species or system Sprague Dawley (SD) rats; details: male SD rats, intragastric 300 mg/kg (as compound of formula A), plasma
Method: According to Table 16, three solid dispersions, namely, formulation of API+Soluplus, formulation of API+PVP VA64 and formulation of API+HPC SSL, were selected to conduct in vivo pharmacokinetic tests with the corresponding amorphous form of API to study the pharmacokinetic characteristics of solid dispersions with different formulations in animals.
Method: solid dispersions with different formulations were evaluated with the pharmacokinetic characteristics of male Sprague Dawley (SD) rats after intragastric administration.
Materials: SD Rats (Male, 200-250 g, 6-8 Weeks Old, Zhejiang Weitong Lihua).
Steps: the solid dispersion with the formulation of Table 16 was tested by intragastric administration of 300 mg/kg (dosage calculated according to the compound of formula A) to SD rats, and the solvent was 25 mM citrate buffer pH3 containing 5% Tween 80. The animals were free to eat and drink water. Blood was collected from the jugular vein 15 min (0.25 h), 30 min (0.5 h), 60 min (1 h), 2 h, 4 h, 6 h, 8 h and 24 h after administration. Whole blood was collected in an anticoagulant tube containing EDTA-K2, and after thorough mixing, it was centrifuged at 4° C. and 4000 g for 5 minutes to separate plasma. Plasma samples were stored at −75±15° C. until the blood concentration of the compound of formula A was determined by LC-MS/MS. The relevant pharmacokinetic parameters were calculated using the non-compartmental model and linear/log trapezoidal method of Phoenix WinNonlin 6.1.

[5] = Redispersion solubility test of solid dispersions (SGF, then SGF + 2 times volume FaSSIF); format: physicochemical; details: Concentration 1 mg/mL
Method: […] After stirring at 37° C. for 0.25 h and 0.5 h at 500 rpm, about 200 μL of the suspension was centrifuged at 14,000 rpm for 5 min, and the supernatant was diluted by 6 times with diluent for HPLC analysis. After sampling at 0.5 h, 2 times the volume of SGF of FaSSIF was immediately added to the suspension and the mixture was stirred for another 0.25 h, 0.5 h and 1.5 h, and then sampled for HPLC analysis and pH testing.

[6] = One-week solid stability study of solid dispersions; format: physicochemical
Method: According to Table 6, three solid dispersions, namely, formulation of API+Soluplus, formulation of API+PVP VA64, and formulation of API+HPC SSL, were stored at 25° C./60% RH (open) and 40° C./75% RH (open) for one week, the appearance of the sample was visually observed and the purity of the samples was analyzed by HPLC.
Therefore, the storage of solid dispersions should avoid exposure to high temperature and high humidity conditions to prevent chemical degradation.

[7] = Four-week solid stability study of API+HPC SSL solid dispersions; format: physicochemical
Method: All solid dispersions with formulation of API+HPC SSL were stored at 25° C./60% RH (open) and 40° C./75% RH (sealed). After one week and four weeks (1 w and 4 w), the sample appearance was visually observed, the crystal form change was tested by XRPD, and the sample purity was analyzed by HPLC. The results are shown in Tables 11 to 12 and FIGS. 37 to 38.

## O=C1CC[C@H](N2Cc3cc(C(=O)N[C@H](c4ccc(Cl)cn4)C4CCC4)ccc3C2=O)C(=O)N1 [compound of formula A, N—((S)-(5-chloropyridin-2-yl)(cyclobutyl)methyl)-2-((S)-2,6-dioxopiperidin-3-yl)-1-oxoisoindoline-5-carboxamide]
[1]; in MeOH
  Chirality stability: rapidly racemized
[1]; in acetone and ethanol
  Chirality stability: better chirality stability
[2]; solvent ACN
  solubility: < 5000 µg/mL
[2]; solvent Acetone
  solubility: < 5000 µg/mL
[2]; solvent Acetone:ACN (1:1)
  solubility: < 5000 µg/mL
[2]; solvent Acetone:DCM (1:1)
  solubility: < 5000 µg/mL
[2]; solvent Acetone:DCM (4:1)
  solubility: < 5000 µg/mL
[2]; solvent Acetone:THF (1:1)
  solubility: < 5000 µg/mL
[2]; solvent DCM
  solubility: < 5000 µg/mL
[2]; solvent DCM:MeOH (1:1)
  solubility: 25000 to 50000 µg/mL
[2]; solvent DCM:MeOH (2:1)
  solubility: 50000 to 100000 µg/mL
[2]; solvent DCM:MeOH (4:1)
  solubility: 50000 to 100000 µg/mL
[2]; solvent DCM:MeOH (5:1)
  solubility: 50000 to 100000 µg/mL
[2]; solvent DCM:MeOH (7:1)
  solubility: 50000 to 100000 µg/mL
[2]; solvent DCM:MeOH (9:1)
  solubility: 25000 to 50000 µg/mL
[2]; solvent DCM:MeOH (99:1)
  solubility: < 5000 µg/mL
[2]; solvent DCM:THF (1:1)
  solubility: < 5000 µg/mL
[2]; solvent DCM:THF (4:1)
  solubility: < 5000 µg/mL
[2]; solvent Ethyl acetate
  solubility: < 5000 µg/mL
[2]; solvent MeOH
  solubility: < 5000 µg/mL
[2]; solvent THF
  solubility: < 5000 µg/mL
[2]; v/v), solvent Acetone:Water (9:1)
  solubility: 15000 to 50000 µg/mL
[2]; v/v), solvent DCM:EtOH (9:1)
  solubility: 5000 to 15000 µg/mL

## O=C1CC[C@H](N2Cc3cc(C(=O)N[C@H](c4ccc(Cl)cn4)C4CCC4)ccc3C2=O)C(=O)N1 [Amorphous form of API, N—((S)-(5-chloropyridin-2-yl)(cyclobutyl)methyl)-2-((S)-2,6-dioxopiperidin-3-yl)-1-oxoisoindoline-5-carboxamide]
[3]; fassif, thermodynamic from solid, 0.25 h
  solubility at 0.25 h: 470 µg/mL (≈ 1010 µM)
[3]; fassif, thermodynamic from solid, 0.5 h
  solubility at 0.5 h: 490 µg/mL (≈ 1050 µM)
[3]; fassif, thermodynamic from solid, 0.75 h
  solubility at 0.75 h: 600 µg/mL (≈ 1290 µM)
[3]; fassif, thermodynamic from solid, 1 h
  solubility at 1 h: 570 µg/mL (≈ 1220 µM)
[3]; fassif, thermodynamic from solid, 2 h
  solubility at 2 h: 450 µg/mL (≈ 964 µM)
[4]; Sprague Dawley, rat, po
  AUC(0-inf): 112 µg·h/mL
  AUC(0-t): 111 µg·h/mL
  Cmax: 18700 ng/mL
  Tmax: 1 h
  half-life: 4.06 h
[4]
  AUClast/D: 369 ng·kg·h/mL/mg
[5]
  End point pH: 6.55
[5]; SGF + 2 times volume FaSSIF, fassif, thermodynamic from solid, 37° C., read-out: Redispersion solubility, Step 2: SGF + 2 times volume FaSSIF (0.75 hr)
  solubility at 0.75 h: 460 µg/mL
[5]; SGF + 2 times volume FaSSIF, fassif, thermodynamic from solid, 37° C., read-out: Redispersion solubility, Step 2: SGF + 2 times volume FaSSIF (1.0 hr)
  solubility at 1 h: 440 µg/mL
[5]; SGF + 2 times volume FaSSIF, pH 6.55, fassif, thermodynamic from solid, 37° C., read-out: Redispersion solubility, Step 2: SGF + 2 times volume FaSSIF (2.0 hr)
  solubility at 2 h: 270 µg/mL
[5]; simulated gastric fluid (SGF), simulated gastric fluid, thermodynamic from solid, 37° C., read-out: Redispersion solubility, Step 1: SGF (0.25 hr)
  solubility at 0.25 h: 960 µg/mL
[5]; simulated gastric fluid (SGF), simulated gastric fluid, thermodynamic from solid, 37° C., read-out: Redispersion solubility, Step 1: SGF (0.5 hr)
  solubility at 0.5 h: 980 µg/mL

## O=C1CC[C@H](N2Cc3cc(C(=O)N[C@H](c4ccc(Cl)cn4)C4CCC4)ccc3C2=O)C(=O)N1 [API control, N—((S)-(5-chloropyridin-2-yl)(cyclobutyl)methyl)-2-((S)-2,6-dioxopiperidin-3-yl)-1-oxoisoindoline-5-carboxamide]
[3]; 0.25 h
  solubility: 470 µg/mL (≈ 1010 µM)
[3]; 0.5 h
  solubility: 460 µg/mL (≈ 985 µM)
[3]; 0.75 h
  solubility: 490 µg/mL (≈ 1050 µM)
[3]; 1 h
  solubility: 510 µg/mL (≈ 1090 µM)
[3]; 2 h
  solubility: 440 µg/mL (≈ 942 µM)
[6]; 25° C./60% RH open, one week
  Appearance: White powder
  Contents: 97.26%
  Impurities: 0.72%
  RRT 0.54: 0.10%
  RRT 0.92: <LOQ
  RRT 0.93: 0.10%
  RRT 0.95: 0.09%
  RRT 0.96: 0.10%
  RRT 1.00: 99.29%
  RRT 1.11: 0.09%
  RRT 1.18: 0.17%
  RRT 1.24: 0.06%
[6]; 40° C./75% RH open, one week
  Appearance: Slight agglomeration
  Contents: 96.79%
  Impurities: 1.05%
  RRT 0.54: 0.13%
  RRT 0.92: 0.12%
  RRT 0.93: 0.26%
  RRT 0.95: 0.09%
  RRT 0.96: 0.13%
  RRT 1.00: 98.95%
  RRT 1.11: 0.11%
  RRT 1.18: 0.14%
  RRT 1.24: 0.06%
[6]; Initial
  Appearance: White powder
  Impurities: 0.67%
  RRT 0.54: 0.11%
  RRT 0.92: <LOQ
  RRT 0.93: 0.09%
  RRT 0.95: 0.09%
  RRT 0.96: 0.10%
  RRT 1.00: 99.34%
  RRT 1.11: 0.07%
  RRT 1.18: 0.15%
  RRT 1.24: 0.05%
[7]; 25° C./60% RH open, 1 w
  Contents: 96.84%
  Impurities: 0.81%
  RRT 0.92: 0.05%
  RRT 0.93: 0.10%
  RRT 0.95: 0.09%
  RRT 0.96: 0.14%
  RRT 1.00: 99.20%
  RRT 1.10: 0.32%
  RRT 1.17: 0.10%
[7]; 25° C./60% RH open, 4 w
  Contents: 101.1%
  Impurities: 0.70%
  RRT 0.92: <LOQ
  RRT 0.93: 0.07%
  RRT 0.95: 0.09%
  RRT 0.96: 0.14%
  RRT 1.00: 99.30%
  RRT 1.10: 0.32%
  RRT 1.17: 0.09%
[7]; 40° C./75% RH sealed, 1 w
  Contents: 97.46%
  Impurities: 0.75%
  RRT 0.92: 0.03%
  RRT 0.93: 0.06%
  RRT 0.95: 0.09%
  RRT 0.96: 0.15%
  RRT 1.00: 99.25%
  RRT 1.10: 0.32%
  RRT 1.17: 0.09%
[7]; 40° C./75% RH sealed, 4 w
  Contents: 101.2%
  Impurities: 0.70%
  RRT 0.92: <LOQ
  RRT 0.93: 0.06%
  RRT 0.95: 0.09%
  RRT 0.96: 0.14%
  RRT 1.00: 99.30%
  RRT 1.10: 0.33%
  RRT 1.17: 0.09%
[7]; Initial
  Impurities: 0.78%
  RRT 0.92: 0.05%
  RRT 0.93: 0.10%
  RRT 0.95: 0.09%
  RRT 0.96: 0.15%
  RRT 1.00: 99.22%
  RRT 1.10: 0.31%
  RRT 1.17: 0.09%
